Measurements: patent US8067582B2 (Bristol-Myers Squibb Company, priority 2007, dated 2011)
Where two headings read alike, the source gives them in different places.

Assays:
[1] = system: immature castrated male rats; assay: Immature Rat Prostate Weight (IRPW) Assay; format: in vivo, rat (Sprague-Dawley); conditions: Rattus norvegicus, 96 h, read-out: IRPW SV/FB (% control)
androgen receptor (AR) = target: T1, androgen receptor (AR) (Homo sapiens, UniProt P10275); assay: MDA-MB-453 Androgen Receptor Transactivation Assay (PSA-Luc reporter, 3 nM DHT); format: cell-based; conditions: MDA-MB-453 cells, antagonism in presence of 3 nM DHT, 48 hour incubation
T1 sequence (P10275 1-920): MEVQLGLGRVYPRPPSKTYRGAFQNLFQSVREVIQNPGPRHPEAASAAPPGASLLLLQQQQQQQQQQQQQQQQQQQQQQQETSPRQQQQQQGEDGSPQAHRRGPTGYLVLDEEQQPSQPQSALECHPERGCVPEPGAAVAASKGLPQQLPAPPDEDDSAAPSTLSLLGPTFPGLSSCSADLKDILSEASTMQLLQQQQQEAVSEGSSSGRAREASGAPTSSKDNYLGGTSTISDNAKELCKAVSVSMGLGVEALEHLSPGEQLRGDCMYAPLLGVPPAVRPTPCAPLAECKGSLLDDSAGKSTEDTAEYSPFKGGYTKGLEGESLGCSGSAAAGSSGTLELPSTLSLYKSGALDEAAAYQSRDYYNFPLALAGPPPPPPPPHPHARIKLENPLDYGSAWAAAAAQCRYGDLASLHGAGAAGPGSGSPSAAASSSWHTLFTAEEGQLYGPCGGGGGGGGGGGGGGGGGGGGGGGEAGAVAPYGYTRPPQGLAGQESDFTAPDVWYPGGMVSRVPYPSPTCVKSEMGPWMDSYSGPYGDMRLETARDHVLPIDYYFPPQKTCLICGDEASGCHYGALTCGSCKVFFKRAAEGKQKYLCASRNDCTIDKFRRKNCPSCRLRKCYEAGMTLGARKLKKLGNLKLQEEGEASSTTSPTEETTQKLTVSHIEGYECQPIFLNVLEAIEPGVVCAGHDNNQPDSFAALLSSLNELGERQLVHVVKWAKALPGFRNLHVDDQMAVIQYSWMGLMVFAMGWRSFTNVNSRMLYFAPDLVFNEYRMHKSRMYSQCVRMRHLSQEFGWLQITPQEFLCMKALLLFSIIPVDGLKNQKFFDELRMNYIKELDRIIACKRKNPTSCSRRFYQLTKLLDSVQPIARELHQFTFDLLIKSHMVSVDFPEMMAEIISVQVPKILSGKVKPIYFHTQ
Excerpt: Compounds can be tested in a cell based transactivation assay used to measure the antagonism of androgen receptor (AR) transcriptional activity. The transactivation assay provides a means of identifying antagonists that inhibit the effects of the native hormone dihydrotestosterone (DHT). […] The pGL3 PSA-Luc reporter plasmid is comprised of the cDNA for the firefly luciferase gene and the upstream promoter sequences containing the androgen response elements (AREs) of the prostate specific antigen (PSA). This plasmid functions as a reporter for the transcription-modulating activity of the AR. In order to detect antagonists, the transactivation assay is conducted in the presence of constant concentration of the natural AR hormone (DHT) to induce a defined reporter signal. Addition of increasing concentrations of the suspected antagonist will decrease the reporter signal (luciferase activity).
MDA-MB-453 and 22 RV1 cells were maintained in DMEM (Cellgro, Cat. #10-014-CM) or RPMI 1640 (Gibco Cat. #11875-085) respectively and supplemented with 10% FBS (Invitrogen/GIBCO Life Science). Cells were bulk transfected in flasks with 1.3 ug/ml pGL3 PSA-Luc plasmid by using the Lipofectamine 2000 Reagent (Invitrogen, Cat. #11668-019) and serum-free Opti-MEM I media (Invitrogen, Cat #31985-070) according to the manufacturer's optimized conditions. Transfection was conducted at 37° C. with 5% CO2 for 16-18 hours. Following transfection, cells are washed, treated with trypsin, counted, and seeded in a 96-well plate at 30,000 cells per well in DMEM containing 10% Charcoal/Dextran Treated Fetal Bovine Serum (Gibco Cat. #11054-020) for MDA-MB-453 cells or RPMI 1640 (Gibco Cat. #110835) containing 10% FBS (Invitrogen/GIBCO Life Science) for 22 RV1 cells.
Following transfection, cells were incubated in the absence (blank) or presence (control) of 3 nM DHT (Sigma, Cat. #A-8380) and in the presence or absence of the standard antiandrogen bicalutamide or test compounds ranging in concentrations from 10^−10 to 10^−5M. Duplicates were used for each sample. The compound dilutions were performed by the Tecan Genesis (Tecan, Triangle Park, N.C.). After a 48 hour incubation, luciferase activity was measured using the Steady-Glo Luciferase Assay System (Promega, Cat. #E2550) according to manufacturer's specifications and luminescence was measured on a Packard TopCount (PerkinElmer). For each luciferase sample reading, the percent control (in absence of compounds) was calculated as: % Control=100×[averagesample−averageblank]/[averagecontrol−averageblank] Data was plotted and the IC50 value was defined as the concentration of compound that inhibited 50% of the luciferase activity for the controls.
Compounds described herein were tested in the AR transactivation assay described immediately above, using MDA-MB-453 cells.

[2] = immature castrated rats, 3 mpk PO QD × 4 days

SMILES	response vs control in vivo at 3 mg/kg [1, 2] [%]	IC50 (androgen receptor (AR); read-out: IC50) [nM]	response vs control in vivo at 3 mg/kg ([1]; po) [%]	IC50 (androgen receptor (AR)) [nM]
C#Cc1cc(N2C(=O)[C@H]3[C@H]4[C@@H]2OCC[C@@]42O[C@]3(C)C[C@@H]2O)ccc1C#N [Example 62, 2-Ethynyl-4-((1R,2S,4R,5S,8S,12R)-2-hydroxy-4-methyl-6-oxo-9,13-dioxa-7-azatetracyclo[6.3.1.1^1,4.0^5,12]tridec-7-yl)benzonitrile]	108	1920	–	–
C[C@@]12C[C@H](O)[C@]3(CCO[C@H]4[C@@H]3[C@@H]1C(=O)N4c1ccc(C#N)c(Br)c1)O2 [Example 66, 2-Bromo-4-((1R,2S,4R,5S,8S,12R)-2-hydroxy-4-methyl-6-oxo-9,13-dioxa-7-azatetracyclo[6.3.1.1^1,4.0^5,12]tridec-7-yl)benzonitrile]	38	195	–	–
C[C@@]12C[C@H](O)[C@]3(CCO[C@H]4[C@@H]3[C@@H]1C(=O)N4c1ccc(Cl)c(Cl)c1)O2 [Example 113, (1R,2S,4R,5S,8S,12R)-7-(3,4-dichlorophenyl)-2-hydroxy-4-methyl-9,13-dioxa-7-azatetracyclo[6.3.1.1^1,4.0^5,12]tridecan-6-one]	68	1340	–	–
C[C@@]12C[C@H](O)[C@]3(CCO[C@H]4[C@@H]3[C@@H]1C(=O)N4c1ccc(C#N)c(Cl)c1)O2 [Example 119, 2-Chloro-4-((1R,2S,4R,5S,8S,12R)-2-hydroxy-4-methyl-6-oxo-9,13-dioxa-7-azatetracyclo[6.3.1.1^1,4.0^5,12]tridec-7-yl)benzonitrile]	–	–	39	183
C[C@@]12C[C@H](O)[C@]3(CCO[C@H]4[C@@H]3[C@@H]1C(=O)N4c1ccc(Cl)c(C#N)c1)O2 [Example 120, 2-Chloro-5-((1R,2S,4R,5S,8S,12R)-2-hydroxy-4-methyl-6-oxo-9,13-dioxa-7-azatetracyclo[6.3.1.1^1,4.0^5,12]tridec-7-yl)benzonitrile]	80	1650	–	–
Cc1cc(N2C(=O)[C@H]3[C@H]4[C@@H]2OCC[C@@]42O[C@]3(C)C[C@@H]2O)ccc1C#N [Example 122, 4-((1R,2S,4R,5S,8S,12R)-2-hydroxy-4-methyl-6-oxo-9,13-dioxa-7-azatetracyclo[6.3.1.1^1,4.0^5,12]tridec-7-yl)-2-methylbenzonitrile]	90	1710	–	–
C[C@]12O[C@@]3(CCO[C@H]4[C@@H]3[C@@H]1C(=O)N4c1cc(F)c(C#N)c(C(F)(F)F)c1)C[C@H]2O [Example 139, 2-Fluoro-4-((1S,3R,4S,5S,8S,12R)-3-hydroxy-4-methyl-6-oxo-9,13-dioxa-7-azatetracyclo[6.3.1.1^1,4.0^5,12]tridec-7-yl)-6-(trifluoromethyl)benzonitrile]	–	–	35	60
C[C@]12O[C@@]3(CCO[C@H]4[C@@H]3[C@@H]1C(=O)N4c1ccc(C#N)c(C(F)(F)F)c1)C[C@@H]2O [Example 156, 4-((1S,3S,4S,5S,8S,12R)-3-hydroxy-4-methyl-6-oxo-9,13-dioxa-7-azatetracyclo[6.3.1.1^1,4.0^5,12]tridec-7-yl)-2-(trifluoromethyl)benzonitrile]	–	–	64	304
CCS(=O)(=O)N[C@H]1C[C@@]2(C)O[C@@]13CCO[C@H]1[C@@H]3[C@@H]2C(=O)N1c1ccc(C#N)c(Br)c1 [Example 179, N-((1R,2S,4R,5S,8S,12R)-7-(3-Bromo-4-cyanophenyl)-4-methyl-6-oxo-9,13-dioxa-7-azatetracyclo[6.3.1.1^1,4.0^5,12]tridec-2-yl)ethanesulfonamide]	31	141	–	–
C[C@@]12C[C@H](NS(=O)(=O)CC(F)(F)F)[C@]3(CCO[C@H]4[C@@H]3[C@@H]1C(=O)N4c1ccc(C#N)c(Cl)c1)O2 [Example 185, N-((1R,2S,4R,5S,8S,12R)-7-(3-Chloro-4-cyanophenyl)-4-methyl-6-oxo-9,13-dioxa-7-azatetracyclo[6.3.1.1^1,4.0^5,12]tridec-2-yl)-2,2,2-trifluoroethanesulfonamide]	–	–	31	147
CCS(=O)(=O)N[C@H]1C[C@@]2(C)O[C@@]13CCO[C@H]1[C@@H]3[C@@H]2C(=O)N1c1cc(Cl)c(C#N)c(Cl)c1 [Example 186, N-((1R,2S,4R,5S,8S,12R)-7-(3,5-Dichloro-4-cyanophenyl)-4-methyl-6-oxo-9,13-dioxa-7-azatetracyclo[6.3.1.1^1,4.0^5,12]tridec-2-yl)ethanesulfonamide]	–	–	39	220
CCS(=O)(=O)N[C@H]1C[C@@]2(C)O[C@@]13CCO[C@H]1[C@@H]3[C@@H]2C(=O)N1c1ccc(C#N)c(OC(F)(F)F)c1 [Example 188, N-((1R,2S,4R,5S,8S,12R)-7-(4-Cyano-3-(trifluoromethoxy)phenyl)-4-methyl-6-oxo-9,13-dioxa-7-azatetracyclo[6.3.1.1^1,4.0^5,12]tridec-2-yl)ethanesulfonamide]	33	383	–	–
COC(=O)N[C@@H]1C[C@@]23CCO[C@H]4[C@@H]2[C@H](C(=O)N4c2ccc(C#N)c(C(F)(F)F)c2)[C@]1(C)O3 [Example 207, Methyl ((1R,3R,4S,5S,8S,12R)-7-(4-cyano-3-(trifluoromethyl)phenyl)-4-methyl-6-oxo-9,13-dioxa-7-azatetracyclo[6.3.1.1^1,4.0^5,12]tridec-3-yl)carbamate]	–	–	37	54
COC(=O)N[C@@H]1C[C@@]23CCO[C@H]4[C@@H]2[C@H](C(=O)N4c2cc(Cl)c(C#N)c(Cl)c2)[C@]1(C)O3 [Example 208, Methyl ((1R,3R,4S,5S,8S,12R)-7-(3,5-dichloro-4-cyanophenyl)-4-methyl-6-oxo-9,13-dioxa-7-azatetracyclo[6.3.1.1^1,4.0^5,12]tridec-3-yl)carbamate]	–	–	37	118
CCC(=O)N[C@H]1C[C@@]23CCO[C@H]4[C@@H]2[C@H](C(=O)N4c2ccc(C#N)c(C(F)(F)F)c2)[C@]1(C)O3 [Example 236, N-((1R,3S,4S,5S,8S,12R)-7-(4-cyano-3-(trifluoromethyl)phenyl)-4-methyl-6-oxo-9,13-dioxa-7-azatetracyclo[6.3.1.1^1,4.0^5,12]tridec-3-yl)propanamide]	–	–	62	104
